Measurements: PubChem BioAssay (NCI)
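Abbreviation: GI50, concentration required for 50% inhibition of growth. TGI denotes the concentration required for complete inhibition of growth.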

Assays:
Assay in all cases: NCI-60 cell line screen, 384-well format
U251 glioblastoma = tested on: U251 glioblastoma
RPMI-8226 leukemia = tested on: RPMI-8226 leukemia
OVCAR-4 ovarian = tested on: OVCAR-4 ovarian
SK-MEL-5 melanoma = tested on: SK-MEL-5 melanoma
HL-60(TB) leukemia = tested on: HL-60(TB) leukemia
NCI/ADR-RES ovarian = tested on: NCI/ADR-RES ovarian
SF-268 CNS = tested on: SF-268 CNS
NCI-H226 lung = tested on: NCI-H226 lung
UACC-62 melanoma = tested on: UACC-62 melanoma
ACHN renal = tested on: ACHN renal
NCI-H322M lung = tested on: NCI-H322M lung
A549 NSCLC = tested on: A549 NSCLC
DU-145 prostate = tested on: DU-145 prostate
COLO 205 colon = tested on: COLO 205 colon
SF-539 CNS = tested on: SF-539 CNS
OVCAR-3 ovarian = tested on: OVCAR-3 ovarian
EKVX NSCLC = tested on: EKVX NSCLC
UACC-257 melanoma = tested on: UACC-257 melanoma
MDA-MB-468 breast = tested on: MDA-MB-468 breast
HOP-92 NSCLC = tested on: HOP-92 NSCLC
SNB-19 CNS = tested on: SNB-19 CNS
LOX IMVI melanoma = tested on: LOX IMVI melanoma
PC-3 prostate = tested on: PC-3 prostate
NCI-H460 NSCLC = tested on: NCI-H460 NSCLC
HT29 colon = tested on: HT29 colon
BT-549 breast = tested on: BT-549 breast
M14 melanoma = tested on: M14 melanoma
SF-295 CNS = tested on: SF-295 CNS
MDA-MB-435 melanoma = tested on: MDA-MB-435 melanoma
TK-10 renal = tested on: TK-10 renal
NCI-H23 lung = tested on: NCI-H23 lung
SNB-75 CNS = tested on: SNB-75 CNS
MDA-MB-231 breast = tested on: MDA-MB-231 breast
SK-OV-3 ovarian = tested on: SK-OV-3 ovarian
OVCAR-5 ovarian = tested on: OVCAR-5 ovarian
A498 renal = tested on: A498 renal
KM12 colon = tested on: KM12 colon
MOLT-4 leukemia = tested on: MOLT-4 leukemia
MCF7 breast = tested on: MCF7 breast
HOP-62 NSCLC = tested on: HOP-62 NSCLC
NCI-H522 lung = tested on: NCI-H522 lung
SK-MEL-28 melanoma = tested on: SK-MEL-28 melanoma
SR leukemia = tested on: SR leukemia
HS 578T breast = tested on: HS 578T breast
HCT-116 colon = tested on: HCT-116 colon
IGROV1 ovarian = tested on: IGROV1 ovarian
HCT-15 colon = tested on: HCT-15 colon
MALME-3M melanoma = tested on: MALME-3M melanoma
OVCAR-8 ovarian = tested on: OVCAR-8 ovarian
HCC-2998 colon = tested on: HCC-2998 colon
CAKI-1 renal = tested on: CAKI-1 renal
T-47D breast = tested on: T-47D breast
SN12C renal = tested on: SN12C renal
RXF 393 renal = tested on: RXF 393 renal

COc1ccc2c(OCc3nnc4ccc(-c5ccccc5)nn34)ccnc2c1
GI50 (U251 glioblastoma): > 100 µM | TGI (U251 glioblastoma): > 100 µM | GI50 (RPMI-8226 leukemia): > 100 µM | TGI (RPMI-8226 leukemia): > 100 µM | GI50 (OVCAR-4 ovarian): 28.9 µM | TGI (OVCAR-4 ovarian): > 100 µM | GI50 (SK-MEL-5 melanoma): > 100 µM | TGI (SK-MEL-5 melanoma): > 100 µM | GI50 (HL-60(TB) leukemia): > 100 µM | TGI (HL-60(TB) leukemia): > 100 µM | GI50 (NCI/ADR-RES ovarian): > 100 µM | TGI (NCI/ADR-RES ovarian): > 100 µM | GI50 (SF-268 CNS): > 100 µM | TGI (SF-268 CNS): > 100 µM | GI50 (NCI-H226 lung): > 100 µM | TGI (NCI-H226 lung): > 100 µM | GI50 (UACC-62 melanoma): > 100 µM | TGI (UACC-62 melanoma): > 100 µM | GI50 (ACHN renal): 42.2 µM | TGI (ACHN renal): > 100 µM | GI50 (NCI-H322M lung): > 100 µM | TGI (NCI-H322M lung): > 100 µM | GI50 (A549 NSCLC): > 100 µM | TGI (A549 NSCLC): > 100 µM | GI50 (DU-145 prostate): > 100 µM | TGI (DU-145 prostate): > 100 µM | GI50 (COLO 205 colon): > 100 µM | TGI (COLO 205 colon): > 100 µM | GI50 (SF-539 CNS): > 100 µM | TGI (SF-539 CNS): > 100 µM | GI50 (OVCAR-3 ovarian): 29.8 µM | TGI (OVCAR-3 ovarian): 94.6 µM | GI50 (EKVX NSCLC): > 100 µM | TGI (EKVX NSCLC): > 100 µM | GI50 (UACC-257 melanoma): > 100 µM | TGI (UACC-257 melanoma): > 100 µM | GI50 (MDA-MB-468 breast): > 100 µM | TGI (MDA-MB-468 breast): > 100 µM | GI50 (HOP-92 NSCLC): > 100 µM | TGI (HOP-92 NSCLC): > 100 µM | GI50 (SNB-19 CNS): 50.1 µM | TGI (SNB-19 CNS): > 100 µM | GI50 (LOX IMVI melanoma): > 100 µM | TGI (LOX IMVI melanoma): > 100 µM | GI50 (PC-3 prostate): > 100 µM | TGI (PC-3 prostate): > 100 µM | GI50 (NCI-H460 NSCLC): 73.8 µM | TGI (NCI-H460 NSCLC): > 100 µM | GI50 (HT29 colon): > 100 µM | TGI (HT29 colon): > 100 µM | GI50 (BT-549 breast): > 100 µM | TGI (BT-549 breast): > 100 µM | GI50 (M14 melanoma): > 100 µM | TGI (M14 melanoma): > 100 µM | GI50 (SF-295 CNS): > 100 µM | TGI (SF-295 CNS): > 100 µM | GI50 (MDA-MB-435 melanoma): > 100 µM | TGI (MDA-MB-435 melanoma): > 100 µM | GI50 (TK-10 renal): 48.7 µM | TGI (TK-10 renal): > 100 µM | GI50 (NCI-H23 lung): > 100 µM | TGI (NCI-H23 lung): > 100 µM | GI50 (SNB-75 CNS): > 100 µM | TGI (SNB-75 CNS): > 100 µM | GI50 (MDA-MB-231 breast): > 100 µM | TGI (MDA-MB-231 breast): > 100 µM | GI50 (SK-OV-3 ovarian): > 100 µM | TGI (SK-OV-3 ovarian): > 100 µM | GI50 (OVCAR-5 ovarian): > 100 µM | TGI (OVCAR-5 ovarian): > 100 µM | GI50 (A498 renal): > 100 µM | TGI (A498 renal): > 100 µM | GI50 (KM12 colon): > 100 µM | TGI (KM12 colon): > 100 µM | GI50 (MOLT-4 leukemia): > 100 µM | TGI (MOLT-4 leukemia): > 100 µM | GI50 (MCF7 breast): > 100 µM | TGI (MCF7 breast): > 100 µM | GI50 (HOP-62 NSCLC): 60.5 µM | TGI (HOP-62 NSCLC): > 100 µM | GI50 (NCI-H522 lung): 44.6 µM | TGI (NCI-H522 lung): > 100 µM | GI50 (SK-MEL-28 melanoma): > 100 µM | TGI (SK-MEL-28 melanoma): > 100 µM | GI50 (SR leukemia): > 100 µM | TGI (SR leukemia): > 100 µM | GI50 (HS 578T breast): > 100 µM | TGI (HS 578T breast): > 100 µM | GI50 (HCT-116 colon): > 100 µM | TGI (HCT-116 colon): > 100 µM | GI50 (IGROV1 ovarian): > 100 µM | TGI (IGROV1 ovarian): > 100 µM | GI50 (HCT-15 colon): > 100 µM | TGI (HCT-15 colon): > 100 µM | GI50 (MALME-3M melanoma): > 100 µM | TGI (MALME-3M melanoma): > 100 µM | GI50 (OVCAR-8 ovarian): > 100 µM | TGI (OVCAR-8 ovarian): > 100 µM | GI50 (HCC-2998 colon): > 100 µM | TGI (HCC-2998 colon): > 100 µM | GI50 (CAKI-1 renal): > 100 µM | TGI (CAKI-1 renal): > 100 µM | GI50 (T-47D breast): > 100 µM | TGI (T-47D breast): > 100 µM | GI50 (SN12C renal): 63 µM | TGI (SN12C renal): > 100 µM | GI50 (RXF 393 renal): > 100 µM | TGI (RXF 393 renal): > 100 µM
